These are literature values, as cited in EP1932526A1, “Morin, a new inhibitor of microbial hyaluronate lyase” (Leibniz-Institut für Naturstoff-Forschung und …, priority 2006, dated 2008).

The conditions of the data set: species and route not given.

With `O=c1c(O)c(-c2ccc(O)cc2O)oc2cc(O)cc(O)c12` [morin, 2',3,4',5,7-pentahydroxyflavone], the LD50 value was 555 mg/kg.
